Source: ChEMBL document CHEMBL1130579, “Design and synthesis of curacin a analogs with varied side chain structures” (Bioorg Med Chem Lett, 1997)
In brackets after ≈: the same amount, converted by molar mass.

Key:
Tubulin alpha chain [1] = molecular target: T1, Tubulin alpha chain (Sus scrofa, UniProt P02550); assay: Compound was tested for inhibitory activity against tubulin polymerization; type: functional
[2] = molecular target: Tubulin alpha chain (Sus scrofa) (UniProt P02550); assay: Compound was tested for percentage of tubulin polymerized at 50 uM dose of compound; type: functional
NCI-H69 = assay: Compound was tested for its cytotoxicity against NCI-H69 human lung cancer cell line; type: functional, cell-based
WiDr = assay: Compound was tested for its cytotoxicity against WiDr human colon cancer cell line; type: functional, cell-based
PC-9 = assay: Compound was tested for its cytotoxicity against PC-9 human lung cancer cell line; type: functional, cell-based
Tubulin alpha chain [3] = molecular target: T1, Tubulin alpha chain; assay: Compound was evaluated for its anti tubulin activity

Sequence of Tubulin alpha chain (Sus scrofa) (P02550 whole entry, looked up): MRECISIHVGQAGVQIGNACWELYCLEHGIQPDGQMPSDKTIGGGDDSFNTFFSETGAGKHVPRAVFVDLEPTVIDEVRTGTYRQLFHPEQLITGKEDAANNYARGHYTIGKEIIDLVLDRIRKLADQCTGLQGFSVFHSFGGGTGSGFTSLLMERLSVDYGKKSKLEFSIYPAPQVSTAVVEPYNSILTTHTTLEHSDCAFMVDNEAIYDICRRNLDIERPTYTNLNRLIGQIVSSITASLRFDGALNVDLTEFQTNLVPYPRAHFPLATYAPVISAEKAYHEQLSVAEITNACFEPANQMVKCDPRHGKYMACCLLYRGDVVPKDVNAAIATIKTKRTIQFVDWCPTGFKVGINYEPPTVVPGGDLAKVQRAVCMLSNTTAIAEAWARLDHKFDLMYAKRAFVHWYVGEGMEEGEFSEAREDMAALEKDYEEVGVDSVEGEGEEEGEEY
T1 sequence (P02550 whole entry, looked up): as above

| IC50 (Tubulin alpha chain [1]) [µM] | Activity [2] [%] | SMILES | IC50 (NCI-H69) [µg/mL] | IC50 (WiDr) [µg/mL] | IC50 (PC-9) [µg/mL] | IC50 (Tubulin alpha chain [3]) [µM] |
| --- | --- | --- | --- | --- | --- | --- |
| > 50 | 100 | CC(C)=C/C=C/CC/C=C\[C@@H]1CSC([C@@H]2C[C@@H]2C)=N1 | – | – | – | – |
| > 50 | 85 | CCCCCCCc1cccc(CC/C=C\[C@@H]2CSC([C@@H]3C[C@@H]3C)=N2)c1 | 64.7 (≈ 175 µM) | 69.3 (≈ 187 µM) | 35.5 (≈ 96.1 µM) | – |
| > 50 | 100 | CCCCCCCCCCCC/C=C\[C@@H]1CSC([C@@H]2C[C@@H]2C)=N1 | 54.1 (≈ 161 µM) | 84.9 (≈ 253 µM) | 77.2 (≈ 230 µM) | – |
| – | – | C=CC[C@@H](CC/C(C)=C/C=C/CC/C=C\[C@@H]1CSC(C2CC2C)=N1)OC (single isomer, unassigned) [CURACIN A] | – | – | – | 2.5 |
| > 50 | 95 | CCCCCCc1ccc(CC/C=C\[C@@H]2CSC([C@@H]3C[C@@H]3C)=N2)cc1 | 76.5 (≈ 215 µM) | 42.5 (≈ 119 µM) | 50.2 (≈ 141 µM) | – |
| > 50 | 84 | C/C=C/CC/C=C\[C@@H]1CSC([C@@H]2C[C@@H]2C)=N1 | 31.7 (≈ 135 µM) | 33.7 (≈ 143 µM) | 37.7 (≈ 160 µM) | – |
| > 50 | 71 | C[C@H]1C[C@H]1C1=N[C@H](/C=C\CCc2ccccc2)CS1 | 34.1 (≈ 125 µM) | 19.6 (≈ 72.3 µM) | 30.1 (≈ 111 µM) | – |
| > 50 | 93 | C[C@H]1C[C@H]1C1=N[C@H](/C=C\CCCc2ccccc2)CS1 | 45.2 (≈ 158 µM) | 19.3 (≈ 67.6 µM) | 24 (≈ 84 µM) | – |

| SMILES | IC50 (Tubulin alpha chain [1]) [µM] | Activity [2] [%] | IC50 (NCI-H69) [µg/mL] | IC50 (WiDr) [µg/mL] | IC50 (PC-9) [µg/mL] | IC50 (Tubulin alpha chain [3]) [µM] |
| --- | --- | --- | --- | --- | --- | --- |
| C=CC[C@@H](CC/C(C)=C/C=C/CC/C=C\[C@@H]1CSC([C@@H]2C[C@@H]2C)=N1)OC [CURACIN A] | 2.5 | – | 0.89 (≈ 2.38 µM) | < 0.2 | 19.6 (≈ 52.5 µM) | – |
